Experimental data from PMC12567398, “New Assay Systems to Characterize the Broad-Spectrum Antiherpesviral and Non-Herpesviral Activity of Cyclin-Dependent Kinase (CDK) 8 Inhibitors” (Pharmaceuticals, 2025).
Read-outs that look alike come from different tables or passages of the source.

How the values were obtained:
RCMV = test system: RCMV; set-up: method as in ref 35, 38 (a number printed in a supplementary file, which may have a reference list of its own: not looked up in the article's list); details: Table S1; read-out: antiviral EC50, RCMV; cited from earlier work
MCMV = test system: MCMV; set-up: method as in ref 35, 38 (a number printed in a supplementary file, which may have a reference list of its own: not looked up in the article's list); details: Table S1; read-out: antiviral EC50, MCMV; cited from earlier work
VZV = test system: VZV; set-up: method as in ref 35, 38 (a number printed in a supplementary file, which may have a reference list of its own: not looked up in the article's list); details: Table S1; read-out: antiviral EC50, VZV; cited from earlier work
KSHV = test system: KSHV; set-up: method as in ref 35, 38 (a number printed in a supplementary file, which may have a reference list of its own: not looked up in the article's list); details: Table S1; read-out: antiviral EC50, KSHV; cited from earlier work
ChCMV = test system: ChCMV; set-up: method as in ref 35, 38 (a number printed in a supplementary file, which may have a reference list of its own: not looked up in the article's list); details: Table S1; read-out: antiviral EC50, ChCMV; cited from earlier work
HHV-6A = test system: HHV-6A; set-up: method as in ref 35 (a number printed in a supplementary file, which may have a reference list of its own: not looked up in the article's list); details: Table S1; J-Jhan cells; read-out: antiviral EC50, HHV-6A (J-Jhan); cited from earlier work
RhCMV = test system: RhCMV; set-up: method as in ref 35, 38 (a number printed in a supplementary file, which may have a reference list of its own: not looked up in the article's list); details: Table S1; read-out: antiviral EC50, RhCMV; cited from earlier work
[1] = test system: Epstein–Barr virus P3HR-1; test: EBV lytic assay in TPA-induced P3HR-1 cells, qPCR; assay type: cell-based
HHV-6A-GFP = test: HHV-6A plaque reduction assay in HFFs; details: read-out: Antiviral mean EC50 based on plaque assay measurements
GPCMV = test system: GPCMV; set-up: method as in ref 35, 38 (a number printed in a supplementary file, which may have a reference list of its own: not looked up in the article's list); details: Table S1; read-out: antiviral EC50, GPCMV; cited from earlier work
HSV-1 = test system: HSV-1; set-up: method as in ref 35, 38 (a number printed in a supplementary file, which may have a reference list of its own: not looked up in the article's list); details: Table S1; read-out: antiviral EC50, HSV-1; cited from earlier work
vaccinia virus VV IHD-5 = test: microbe, parasite or virus in culture; assay type: cell-based
HCMV = test system: HCMV; set-up: method as in ref 35, 38 (a number printed in a supplementary file, which may have a reference list of its own: not looked up in the article's list); details: Table S1; read-out: antiviral EC50, HCMV; cited from earlier work
HAdV = test system: HAdV; set-up: method as in ref 35, 38 (a number printed in a supplementary file, which may have a reference list of its own: not looked up in the article's list); details: Table S1; read-out: antiviral EC50, HAdV; cited from earlier work
EHV-1 = test: EHV-1-specific qPCR of virus release into culture medium; assay type: cell-based, equine herpesvirus 1; details: EHV-1, read-out: EC50
MHV-68-Luc = MHV-68-Luc luciferase reporter assay; assay type: cell-based, murine herpesvirus 68; details: Murine herpesvirus
[2] = Neutral Red uptake cell viability assay, HFF; details: human
[3] = Neutral Red uptake cell viability assay, MEF; details: mouse
[4] = Neutral Red uptake cell viability assay, Vero; details: African green monkey
[5] = Neutral Red uptake cell viability assay, COS-7; details: African green monkey
EHV-1-GFP = EHV-1-GFP antiviral assay, GFP fluorometry; assay type: cell-based, equine herpesvirus 1
in vitro [6] = details: human
[7] = Neutral Red uptake / Alamar Blue cell viability assay, 293T; details: human
in vitro [8] = details: mouse
in vitro [9] = details: African green monkey
in vitro [10] = details: human, CC50
[11] = CC50, COS-7, listed with GFP / COS-7 (Fig 1E)
[12] = mean CC50, HFF, HHV-6A assay conditions (Fig 2D)
[13] = CC50, Vero, reference compounds (Fig 1E)
[14] = human gammaherpesvirus 4, 240 h, EBV, TPA-induced P3HR-1, 10 d, read-out: Antiviral mean EC50 based on qPCR measurements
[15] = Orthopoxvirus vaccinia, 48 h, read-out: Antiviral mean EC50 based on luciferase measurements

## Cc1n[nH]c2ncc(C(=O)N3CCC[C@H]3c3ccc(Cl)cc3)cc12 [MSC-2530818]
SARS-CoV-2 d6-YFP; in words
  CDK8 inhibitor sensitivity of SARS-CoV-2 in Caco-2 cells: low level of sensitivity
SARS-CoV-2 d6-YFP; read-out: Antiviral mean EC50 based on YFP measurements, SARS-CoV-2 d6-YFP, Caco-2, […]
  EC50: ≥ 15.4 µM
SARS-CoV-2 d6-YFP; read-out: antiviral EC50, SARS-CoV-2, Table S1
  EC50: 15.4 ± 6.4 µM
RCMV
  EC50: 0.003 ± 0.008 µM
MCMV
  EC50: 0.02 ± 0.02 µM
VZV
  EC50: > 50 µM
KSHV
  EC50: > 40 µM
ChCMV
  EC50: 0.02 ± 0.03 µM
HHV-6A
  EC50: > 50 µM
293T-tdTom-Luc cells
  CC50: > 100 µM
P3HR-1 cells
  CC50: > 100 µM
Caco-2 cells
  CC50: > 100 µM
RhCMV
  EC50: 0.002 ± 0.001 µM
[1]; Table S1, read-out: antiviral EC50, EBV
  EC50: 1.4 ± 0.6 µM
HHV-6A-GFP; HHV-6A, HFF
  EC50: 0.2 ± 0.4 µM
GPCMV
  EC50: 0.03 ± 0.05 µM
Vero cells
  CC50: > 100 µM
MEFs
  CC50: > 100 µM
HSV-1
  EC50: 42.3 ± 4.9 µM
Vaccinia virus VV IHD-5; read-out: antiviral EC50, VV
  EC50: > 50 µM
HCMV
  EC50: 0.001 ± 0.0007 µM
HAdV
  EC50: 0.3 ± 0.3 µM
EHV-1; qPCR / COS-7
  EC50: 0.7 ± 0.9 µM
EHV-1; qPCR / HFF
  EC50: 0.08 ± 0.2 µM

## O=C(O)P(=O)(O)O [FOS, foscarnet]
MHV-68-Luc; MHV-68-Luc, HFF
  EC50: > 500 µM
MHV-68-Luc; MHV-68-Luc, MEF
  EC50: 41.5 ± 17.5 µM
MHV-68-Luc; Vero, MHV-68-Luc
  EC50: 36.4 ± 10.8 µM
[2]; CC50, HFF (Fig 4F)
  CC50: > 1000 µM
[3]
  CC50 at 7 d: > 1000 µM
[4]; CC50, Vero (Fig 4F)
  CC50 at 7 d: > 1000 µM

## CC(C)Nc1nc2cc(Cl)c(Cl)cc2n1[C@H]1O[C@@H](CO)[C@H](O)[C@@H]1O [MBV, maribavir]
[5]; CC50, COS-7 (Fig 4F)
  CC50 at 4 d: > 100 µM
MHV-68-Luc; COS-7, MHV-68-Luc, COS-7
  EC50: > 50 µM
MHV-68-Luc; MHV-68-Luc, HFF
  EC50: 269 ± 55.5 µM
MHV-68-Luc; MHV-68-Luc, MEF
  EC50: 59.6 ± 2.2 µM
MHV-68-Luc; Vero, MHV-68-Luc
  EC50: 88.9 ± 13.6 µM
[2]; CC50, HFF (Fig 4F)
  CC50: 163 ± 9 µM
[3]
  CC50 at 7 d: 179 ± 10 µM
[4]; CC50, Vero (Fig 4F)
  CC50 at 7 d: > 1000 µM

## Nc1ccn(C[C@@H](CO)OCP(=O)(O)O)c(=O)n1 [CDV, cidofovir]
[5]; [11]
  CC50 at 4 d: 85.6 ± 6.6 µM
[2]; [12]
  CC50: > 100 µM
HHV-6A-GFP; Human betaherpesvirus 6A
  EC50: 0.4 ± 0.1 µM
EHV-1-GFP; COS-7
  EC50: 3.2 ± 3.8 µM
EHV-1-GFP; Equus caballus, Vero
  EC50: 4.5 ± 2.4 µM
[4]; [13]
  CC50 at 7 d: > 100 µM

## Nc1ncnc2c1ncn2CCOCP(=O)(O)O [AFV, adefovir]
In vitro [6]
  CC50: > 100 µM
[1]; [14]
  EC50: 13 ± 5 µM

## CCCCCCCCCCCCCCCCOCCCOP(=O)(O)CO[C@H](CO)Cn1ccc(N)nc1=O [BCV, brincidofovir]
[5]; CC50, COS-7 (Fig 4F)
  CC50 at 4 d: > 10 µM
[5]; [11]
  CC50 at 4 d: 9.8 ± 1.9 µM
[7]
  CC50 at 2 d: > 10 µM
MHV-68-Luc; COS-7, MHV-68-Luc, COS-7
  EC50: 0.2 ± 0.04 µM
MHV-68-Luc; MHV-68-Luc, HFF
  EC50: > 0.5 µM
MHV-68-Luc; MHV-68-Luc, MEF
  EC50: 0.1 ± 0.07 µM
MHV-68-Luc; Vero, MHV-68-Luc
  EC50: 0.01 ± 0.003 µM
[2]; CC50, HFF, reference compounds (Fig 1E)
  CC50: 19 ± 3 µM
[2]; [12]
  CC50: > 10 µM
[3]
  CC50 at 7 d: > 10 µM
HHV-6A-GFP; Human betaherpesvirus 6A
  EC50: 0.002 ± 0.001 µM
Vaccinia virus VV IHD-5; [15]
  EC50: 1.9 ± 0.4 µM
EHV-1-GFP
  EC50: 0.03 ± 0.01 µM
EHV-1-GFP; COS-7
  EC50: 0.04 ± 0.003 µM
EHV-1-GFP; Equus caballus, Vero
  EC50: 0.002 ± 0.003 µM
[4]; CC50, Vero (Fig 4F)
  CC50 at 7 d: > 10 µM
[4]; [13]
  CC50 at 7 d: 1.3 ± 1.4 µM

## Nc1nc2c(ncn2COCCO)c(=O)[nH]1 [ACV, aciclovir]
In vitro [8]
  CC50 at 7 d: > 100 µM
MHV-68-Luc; MHV-68-Luc, HFF
  EC50: > 5 µM
MHV-68-Luc; MHV-68-Luc, MEF
  EC50: 22.2 ± 5.5 µM
MHV-68-Luc; Vero, MHV-68-Luc
  EC50: 0.3 ± 0.3 µM
In vitro [9]
  CC50 at 7 d: > 100 µM
In vitro [10]
  CC50: > 100 µM

## COc1cccc(N2CCN(C3=Nc4c(F)cccc4[C@H](CC(=O)O)N3c3cc(C(F)(F)F)ccc3OC)CC2)c1 [LMV, letermovir]
MHV-68-Luc; MHV-68-Luc, HFF
  EC50: > 50 µM
MHV-68-Luc; MHV-68-Luc, MEF
  EC50: > 50 µM
MHV-68-Luc; Vero, MHV-68-Luc
  EC50: 44 ± 3.2 µM
Vaccinia virus VV IHD-5; [15]
  EC50: > 50 µM

## CC(C)(C)C(=O)OCOP(=O)(COCCn1cnc2c(N)ncnc21)OCOC(=O)C(C)(C)C [ADV, adefovir dipivoxil]
In vitro [6]
  CC50 at 10 d: 93 µM
[1]; [14]
  EC50: 1.7 ± 0.2 µM
